Tests used:
Details in all cases: salmonella enterica subsp. enterica serovar typhimurium; call rule not given here
Salmonella typhimurium [1] = experiment: Toxicity in Salmonella Typhimurium TA100 at 500 ug/plate; assay type: organism-based
Salmonella typhimurium [2] = experiment: Mutagenic activity in Salmonella typhimurium TA100 assessed as number of histidine revertants after 48 hrs in presence of phenobarbital treated rat S9 liver homogenate by Ames test; assay type: toxicity, organism-based, Liver S9 fraction
Salmonella typhimurium [3] = experiment: Mutagenic activity in Salmonella Typhimurium TA100 assessed as increase in number of histidine revertants up to 100 ug/plate after 48 hrs in presence of rat S9 liver homogenate by Ames test; assay type: toxicity, organism-based, Liver S9 fraction
Salmonella typhimurium [4] = experiment: Toxicity in Salmonella Typhimurium TA100 up to 100 ug/plate; assay type: organism-based

Q: Which Activity (Salmonella typhimurium [1]) does the source give for `COc1cc(OC)c2cc([N+](=O)[O-])c3c(C(=O)O)cc4c(c3c2c1)OCO4` [ARISTOLOCHIC ACID IV] here?
A: Toxic

Q: And the Activity (Salmonella typhimurium [2])?
A: Dose-dependent effect

Q: And the Activity (Salmonella typhimurium [3])?
A: Active

Q: And the Activity (Salmonella typhimurium [4])?
A: Non-toxic

From ChEMBL document CHEMBL1147374, “Chemical constituents of Aristolochia rigida and mutagenic activity of aristolochic acid IV” (J Nat Prod, 1993)
